This passage reports IC50 and solubility results from US11542262B2, “Phosphatidylinositol 3-kinase inhibitors” (NANJING ZHENGXIANG PHARMACEUTICALS CO., LTD., priority 2019, dated 2023).

Each structure is given as a SMILES string. Values after ≈ are worked out from the molar mass of the structure shown.

Broadly, the solubility is the dissolved amount per volume that the medium holds. Lower therefore signals a poorly soluble substance.

One data set has as its target PI3Kγ (Homo sapiens, UniProt P48736). In words: ADP-Glo luminescent assay, enzymatic activity of PI3K gamma. As to conditions: ATP 25 μM; read-out: PI3K gamma (nM) inhibitory activity (IC50). It counts as biochemical. The protocol: The compounds would be tested from 1 or 10 μM, 3-fold dilution for 10 doses, in duplicate.
(§1) Compound preparation: Dilute a compound to 100× of the final desired highest inhibitor concentration in reaction by 100% DMSO. Transfer 100 μl of this compound dilution to a well in a 96-well plate and serially dilute it with DMSO for a total of 10 concentrations.
Kinase reaction: Prepare a solution of PI3K in 1× kinase buffer at 2-fold the final concentration of each reagent in the assay. Control wells contain 1× kinase buffer without enzyme. Prepare substrate solution of PIP2 substrate and ATP in 1× kinase reaction buffer at 2-fold of the final concentration. Add concentration substrate solution to each well to the final concentration. Cover the assay plate, shake to mix, and incubate at room temperature for 1 hour. Add 5 μl of ADP-Glo reagent to each well to stop the reaction. […] Add 10 ul Kinase Detection Reagent to each well, shake 1 min, equilibrate for 30 min before reading on a luminescence plate reader.
(§2) Data Analysis: Convert RLU values to percent inhibition values as Percent inhibition=(max−sample RLU)/(max−min)*100. “min”—no enzyme control; “max”—DMSO control. Fit the data in XLFit excel add-in version 5.4.0.8 to obtain IC50 values. Y=Bottom+(Top−Bottom)/(1+(IC50/X)^HillSlope).

The next data set addresses PI3Kδ (Homo sapiens, UniProt O00329). Put plainly: ADP-Glo luminescent assay, enzymatic activity of PI3K delta. The following applies: ATP 25 μM; read-out: PI3K delta (nM) inhibitory activity (IC50). Type of data set: biochemical. The protocol:
Enzymatic activity of PI3K isoforms: Enzymatic activity of the class I PI3K isoforms in the presence of the compounds of Table 1 was measured using ADP-Glo luminescent assay against PI3Kα, PI3Kβ, PI3Kδ and PI3Kγ with ATP concentration at 25 μM. […] The compounds would be tested from 1 or 10 μM, 3-fold dilution for 10 doses, in duplicate.
as §1
Kinase reaction: Prepare a solution of PI3K in 1× kinase buffer at 2-fold the final concentration of each reagent in the assay. Control wells contain 1× kinase buffer without enzyme. Prepare substrate solution of PIP2 substrate and ATP in 1× kinase reaction buffer at 2-fold of the final concentration. Add concentration substrate solution to each well to the final concentration. Cover the assay plate, shake to mix, and incubate at room temperature for 1 hour. Add 5 μl of ADP-Glo reagent to each well to stop the reaction. Mix briefly with a quick spin, shake slowly on the shaker for 120 min. Add 10 ul Kinase Detection Reagent to each well, shake 1 min, equilibrate for 30 min before reading on a luminescence plate reader.
as §2
(In ADP-Glo the light output rises with the ADP produced.)

The next data set addresses T1, PI3K gamma (Mus musculus, UniProt Q9JHG7).
T1 construct: endogenous in cells; host or cells: RAW264.7
Put plainly: Raw264.7 cell assay: phosphorylation of AKT in C5a stimulated RAW264.7 cells (AlphaLISA). The following applies: pAKT, read-out: PI3K gamma Raw264.7 cell (nM) cellular activity (IC50). Type of data set: cell-based. On the procedure: This study aims to determine the inhibitory effect of compounds on PI3K gamma and PI3K delta in corresponding cell based assays. PI3K gamma activity was reflected by phosphorylation of AKT in C5a stimulated RAW264.7 cells, and PI3K delta activity was reflected by phosphorylation of AKT in anti-IgM stimulated Raji cells. Phosphorylation of AKT in cells was determined using AlphaLISA technology from PerkinElmer.
Raw264.7 cell assay: Prepare Passage 15 Raw264.7 cell and add 6 μL of 30K cells per well in 384-well plate by multidrop. Centrifuge at 500 RPM for 30 s and incubate for 2 hours at 37° C., 5% CO2. Add 30 nL compound by echo and incubate for 30 min at 37° C., 5% CO2. […] Add 2 μL of 5× lysis buffer by multidrop, incubate for 10 min on a plate shaker. Add 5 μL acceptor mix provided in the kit, centrifuge at 1000 RPM for 1 min. Add 5 μL donor mix provided in the kit, centrifuge at 1000 RPM for 1 min and incubate in dark for 2 hours at 25° C. Read AlphaLISA signal on Envision.
Y=Bottom+(Top−Bottom)/(1+10^((Log IC50−X)*Hill Slope)) X: Log of cpd concentration Y: Inhibition

A short description of data set [1]: Kinetic solubility test in PBS pH7.4. Type of data set: physicochemical. As to conditions: aqueous buffer, kinetic from dmso stock; PBS pH 7.4, 25° C., 2 hours. On the procedure:
15 μL of stock solution (10 mM) was placed in order into their proper 96-well rack. 485 μL of PBS pH7.4 was added into each vial of the cap-less Solubility Sample plate. The assay was performed in singlet. Add one stir stick to each vial and seal using a molded PTFE/Silicone plug. […] After completion of the 2 hours, the samples from the Solubility Sample plate were transferred into the filter plate. all the samples were filtered using the Vacuum Manifold. Aliquot of 5 μL was taken from the filtrate followed by addition of 495 μL of a mixture of H2O and acetonitrile containing internal standard (1:1). A certain proportion of ultrapure water was used to dilute the diluent according to the peak shape. The dilution factor was changed according to the solubility values and the LC-MS signal response.
Preparation of 3 μM standards (STD): From the 10 mM DMSO STD plate, 6 μL was transferred into the remaining empty plate, and then 194 μL of DMSO was added to that plate to have a STD concentration of 300 μM. From the 300 μM DMSO STD plate, 5 μL was transferred into the remaining empty plate, and then 495 μL of a mixture of H2O and acetonitrile containing internal standard (1:1) was added to that plate to have a final STD concentration of 3 μM. A certain proportion of ultrapure water was used to dilute the diluent according to the peak shape. The concentrations of the standard samples were changed according to the LC-MS signal response.
Procedure for sample analysis: The plate was placed into the well plate autosampler. The samples were evaluated by LC-MS/MS analysis.
Data analysis: All calculations were carried out using Microsoft Excel.
The filtrate was analyzed and quantified against a standard of known concentration using LC coupled with mass spectral peak identification and quantitation. Solubility values of the test compound and control compound were calculated as follows:
[formula] • Any value of the compounds that was not within the specified limits was rejected and the experiment was repeated.

Chain of PI3Kγ (P48736 whole entry, species assumed): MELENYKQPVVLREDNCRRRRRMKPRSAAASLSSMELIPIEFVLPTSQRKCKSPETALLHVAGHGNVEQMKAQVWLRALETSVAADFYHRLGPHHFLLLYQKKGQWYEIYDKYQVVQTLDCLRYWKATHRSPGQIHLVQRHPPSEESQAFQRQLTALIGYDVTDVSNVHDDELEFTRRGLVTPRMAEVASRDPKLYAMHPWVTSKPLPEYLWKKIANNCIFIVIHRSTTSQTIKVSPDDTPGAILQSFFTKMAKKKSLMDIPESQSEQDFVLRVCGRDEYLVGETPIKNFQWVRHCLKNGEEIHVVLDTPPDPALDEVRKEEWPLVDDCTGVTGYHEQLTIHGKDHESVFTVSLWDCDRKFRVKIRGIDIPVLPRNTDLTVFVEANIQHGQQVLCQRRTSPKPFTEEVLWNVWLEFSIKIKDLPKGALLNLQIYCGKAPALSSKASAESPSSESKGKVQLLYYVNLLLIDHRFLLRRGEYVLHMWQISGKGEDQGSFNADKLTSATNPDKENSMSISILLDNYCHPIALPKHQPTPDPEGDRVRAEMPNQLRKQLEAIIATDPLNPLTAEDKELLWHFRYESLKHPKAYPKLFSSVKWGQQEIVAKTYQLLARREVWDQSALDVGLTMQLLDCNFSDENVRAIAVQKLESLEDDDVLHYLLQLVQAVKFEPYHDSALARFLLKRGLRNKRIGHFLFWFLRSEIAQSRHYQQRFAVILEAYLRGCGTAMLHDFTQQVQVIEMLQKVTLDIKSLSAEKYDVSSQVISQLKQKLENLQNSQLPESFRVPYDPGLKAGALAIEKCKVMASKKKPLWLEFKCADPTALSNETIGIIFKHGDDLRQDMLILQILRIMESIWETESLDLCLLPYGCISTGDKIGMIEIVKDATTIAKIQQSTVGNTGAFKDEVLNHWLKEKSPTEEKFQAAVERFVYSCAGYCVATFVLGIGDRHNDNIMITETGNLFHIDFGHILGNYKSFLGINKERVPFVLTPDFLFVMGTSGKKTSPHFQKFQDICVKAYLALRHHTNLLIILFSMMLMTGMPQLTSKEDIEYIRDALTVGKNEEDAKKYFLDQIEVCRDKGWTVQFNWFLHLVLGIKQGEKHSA
T1 sequence (Q9JHG7 whole entry): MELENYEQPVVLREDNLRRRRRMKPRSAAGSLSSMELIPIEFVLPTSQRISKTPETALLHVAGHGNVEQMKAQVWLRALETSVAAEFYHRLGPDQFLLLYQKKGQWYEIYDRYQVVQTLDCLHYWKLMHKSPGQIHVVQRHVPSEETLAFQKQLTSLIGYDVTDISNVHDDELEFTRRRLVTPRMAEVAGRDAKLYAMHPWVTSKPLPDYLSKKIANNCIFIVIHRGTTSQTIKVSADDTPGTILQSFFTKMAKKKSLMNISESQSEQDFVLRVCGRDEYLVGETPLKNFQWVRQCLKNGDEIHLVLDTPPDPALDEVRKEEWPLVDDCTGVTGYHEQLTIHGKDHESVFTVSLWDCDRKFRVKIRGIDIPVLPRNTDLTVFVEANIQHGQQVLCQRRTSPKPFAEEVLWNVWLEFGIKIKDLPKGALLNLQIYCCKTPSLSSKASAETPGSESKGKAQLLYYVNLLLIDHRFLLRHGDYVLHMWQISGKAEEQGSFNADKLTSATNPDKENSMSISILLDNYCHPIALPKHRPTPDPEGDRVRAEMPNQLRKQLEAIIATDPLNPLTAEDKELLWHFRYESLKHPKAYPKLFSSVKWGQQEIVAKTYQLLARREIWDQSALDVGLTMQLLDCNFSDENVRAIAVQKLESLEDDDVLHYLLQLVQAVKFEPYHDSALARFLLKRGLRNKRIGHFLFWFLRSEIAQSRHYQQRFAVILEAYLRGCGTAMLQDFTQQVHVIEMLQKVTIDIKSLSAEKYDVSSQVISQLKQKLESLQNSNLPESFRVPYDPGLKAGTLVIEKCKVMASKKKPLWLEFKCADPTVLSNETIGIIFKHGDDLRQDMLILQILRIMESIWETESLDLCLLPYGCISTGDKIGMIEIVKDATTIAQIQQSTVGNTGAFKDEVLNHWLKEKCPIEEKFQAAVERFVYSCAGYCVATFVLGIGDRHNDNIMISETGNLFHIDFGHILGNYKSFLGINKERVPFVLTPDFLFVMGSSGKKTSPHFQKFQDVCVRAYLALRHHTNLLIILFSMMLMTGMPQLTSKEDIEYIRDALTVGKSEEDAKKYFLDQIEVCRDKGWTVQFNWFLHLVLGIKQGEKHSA
T1 sequence (Q5SW28 whole entry partner): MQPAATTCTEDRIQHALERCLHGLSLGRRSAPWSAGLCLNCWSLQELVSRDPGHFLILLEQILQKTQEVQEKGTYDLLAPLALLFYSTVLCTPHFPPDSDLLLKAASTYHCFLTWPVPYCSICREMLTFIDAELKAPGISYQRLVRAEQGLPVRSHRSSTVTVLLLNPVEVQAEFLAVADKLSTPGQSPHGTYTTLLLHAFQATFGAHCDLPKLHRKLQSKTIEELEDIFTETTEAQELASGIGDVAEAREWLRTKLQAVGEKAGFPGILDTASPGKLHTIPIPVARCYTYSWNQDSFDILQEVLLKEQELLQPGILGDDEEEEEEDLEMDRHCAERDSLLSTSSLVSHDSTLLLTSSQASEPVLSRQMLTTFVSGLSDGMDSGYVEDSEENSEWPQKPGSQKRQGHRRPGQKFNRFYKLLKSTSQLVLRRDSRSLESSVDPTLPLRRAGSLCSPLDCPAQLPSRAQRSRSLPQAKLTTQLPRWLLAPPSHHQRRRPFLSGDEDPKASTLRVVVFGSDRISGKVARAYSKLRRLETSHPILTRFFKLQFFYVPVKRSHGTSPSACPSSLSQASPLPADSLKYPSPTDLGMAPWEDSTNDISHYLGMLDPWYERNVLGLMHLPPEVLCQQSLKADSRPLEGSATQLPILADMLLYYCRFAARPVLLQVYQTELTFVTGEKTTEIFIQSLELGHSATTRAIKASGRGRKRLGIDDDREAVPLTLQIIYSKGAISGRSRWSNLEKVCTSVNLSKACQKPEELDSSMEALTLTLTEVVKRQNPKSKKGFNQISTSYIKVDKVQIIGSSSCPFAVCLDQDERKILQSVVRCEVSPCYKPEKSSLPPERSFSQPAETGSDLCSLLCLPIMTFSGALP
Chain of PI3Kδ (O00329 whole entry, species assumed, canonical isoform): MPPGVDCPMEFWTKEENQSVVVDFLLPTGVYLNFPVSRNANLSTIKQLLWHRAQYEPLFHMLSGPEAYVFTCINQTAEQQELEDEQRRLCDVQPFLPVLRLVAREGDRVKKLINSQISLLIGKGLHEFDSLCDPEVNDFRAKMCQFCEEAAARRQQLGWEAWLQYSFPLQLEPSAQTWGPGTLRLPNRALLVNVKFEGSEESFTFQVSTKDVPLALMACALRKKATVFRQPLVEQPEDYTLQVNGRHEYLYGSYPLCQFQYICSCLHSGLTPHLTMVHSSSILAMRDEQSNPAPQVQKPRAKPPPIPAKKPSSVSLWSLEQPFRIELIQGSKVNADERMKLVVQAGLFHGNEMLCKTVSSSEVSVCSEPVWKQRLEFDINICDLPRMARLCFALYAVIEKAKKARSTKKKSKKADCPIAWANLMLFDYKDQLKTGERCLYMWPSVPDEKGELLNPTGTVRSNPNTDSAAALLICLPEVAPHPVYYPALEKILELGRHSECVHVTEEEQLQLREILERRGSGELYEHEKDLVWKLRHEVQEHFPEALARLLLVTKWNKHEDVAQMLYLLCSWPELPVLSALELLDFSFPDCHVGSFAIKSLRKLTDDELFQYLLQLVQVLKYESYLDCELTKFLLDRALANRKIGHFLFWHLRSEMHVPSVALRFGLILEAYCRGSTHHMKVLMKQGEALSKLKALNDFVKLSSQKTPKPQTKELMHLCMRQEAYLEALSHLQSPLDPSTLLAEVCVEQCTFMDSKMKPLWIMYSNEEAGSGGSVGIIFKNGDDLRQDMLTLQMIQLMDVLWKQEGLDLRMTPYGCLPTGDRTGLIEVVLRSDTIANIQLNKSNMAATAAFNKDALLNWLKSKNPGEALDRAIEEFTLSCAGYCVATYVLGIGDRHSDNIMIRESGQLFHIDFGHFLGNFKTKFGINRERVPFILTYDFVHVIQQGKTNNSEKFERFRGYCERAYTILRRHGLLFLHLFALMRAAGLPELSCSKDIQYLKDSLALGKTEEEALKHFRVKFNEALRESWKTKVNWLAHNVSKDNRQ
Chain of PI3Kδ (P27986 whole entry partner, species assumed, canonical isoform): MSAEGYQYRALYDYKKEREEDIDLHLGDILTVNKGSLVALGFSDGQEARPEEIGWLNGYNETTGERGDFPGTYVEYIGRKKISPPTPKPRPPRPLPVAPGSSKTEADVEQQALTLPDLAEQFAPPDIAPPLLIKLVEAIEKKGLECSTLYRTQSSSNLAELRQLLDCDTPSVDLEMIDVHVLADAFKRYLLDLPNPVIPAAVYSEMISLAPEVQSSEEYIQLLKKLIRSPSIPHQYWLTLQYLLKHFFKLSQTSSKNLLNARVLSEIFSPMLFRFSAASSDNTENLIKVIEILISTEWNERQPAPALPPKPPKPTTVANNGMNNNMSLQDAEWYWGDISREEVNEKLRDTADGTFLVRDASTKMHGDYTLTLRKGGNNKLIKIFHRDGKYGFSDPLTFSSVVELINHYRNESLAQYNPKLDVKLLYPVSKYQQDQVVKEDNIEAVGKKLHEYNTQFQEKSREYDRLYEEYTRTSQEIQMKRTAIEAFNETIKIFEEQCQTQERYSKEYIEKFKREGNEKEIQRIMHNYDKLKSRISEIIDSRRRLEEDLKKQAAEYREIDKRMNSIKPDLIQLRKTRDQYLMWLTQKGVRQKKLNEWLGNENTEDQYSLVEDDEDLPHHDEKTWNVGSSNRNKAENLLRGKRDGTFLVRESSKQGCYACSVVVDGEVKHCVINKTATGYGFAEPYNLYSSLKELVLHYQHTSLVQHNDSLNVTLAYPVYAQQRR

For `CCC(=O)Nc1nc(C)c(-c2cc3c(c(P(C)(C)=O)c2)C(=O)N([C@@H](C)C2CC2)C3)s1` [Compound 2, (S)-N-(5-(2-(1-cyclopropylethyl)-7-(dimethylphosphoryl)-1-oxoisoindolin-5-yl)-4-methylthiazol-2-yl)propionamide], the IC50 at PI3Kγ was 3.7 nM; on PI3Kδ, over 1000 nM.

With `CC(=O)Nc1nc(C)c(-c2cnc3c(c2)CN([C@@H](C)C2CC2)C3=O)s1` [Compound 8, (S)-N-(5-(6-(1-cyclopropylethyl)-7-oxo-6,7-dihydro-5H-pyrrolo[3,4-b]pyridin-3-yl)-4-methylthiazol-2-yl)acetamide], the IC50 at PI3Kγ came to 34 nM; at PI3Kδ, 361 nM; at PI3K gamma, 115 nM.

As for `CC(=O)Nc1nc(C)c(-c2cc3c(c(NC(=O)C4CC4)n2)C(=O)N([C@@H](C)C2CC2)C3)s1` [Compound 26, (S)-N-(6-(2-acetamido-4-methylthiazol-5-yl)-2-(1-cyclopropylethyl)-3-oxo-2,3-dihydro-M-pyrrolo[3,4-c]pyridin-4-yl)cyclopropanecarboxamide], the figures for the IC50 at PI3Kγ and at PI3Kδ were 1.4 nM and over 1000 nM, respectively.

`CC(=O)Nc1nc(C)c(-c2cc3c(c(N4CCNCC4)n2)C(=O)N([C@@H](C)C2CC2)C3)s1` [Compound 39, (S)-N-(5-(2-(1-cyclopropylethyl)-3-oxo-4-(piperazin-1-yl)-2,3-dihydro-1H-pyrrolo[3,4-c]pyridin-6-yl)-4-methylthiazol-2-yl)acetamide]: the IC50 amounted to 3.7 nM on PI3Kγ and 271 nM at PI3K gamma.

Consider `CC(=O)Nc1nc(C)c(-c2cc3c(c(N4CCN(C(C)=O)CC4)n2)C(=O)N([C@@H](C)C2CC2)C3)s1` [Compound 40, (S)-N-(5-(4-(4-acetylpiperazin-1-yl)-2-(1-cyclopropylethyl)-3-oxo-2,3-dihydro-1H-pyrrolo[3,4-c]pyridin-6-yl)-4-methylthiazol-2-yl)acetamide], for which the results for the IC50 at PI3Kγ and on PI3K gamma were 2 nM and 6.3 nM, respectively. The molecule further returned a solubility at 2 h in data set [1] of 25 µM (≈ 12.1 µg/mL).

For the molecule `CC(=O)Nc1ncc(-c2cc3c(c(N4CCOCC4)n2)C(=O)N([C@@H](C)C2CC2)C3)s1` [Compound 41, (S)-N-(5-(2-(1-cyclopropylethyl)-4-morpholino-3-oxo-2,3-dihydro-1H-pyrrolo[3,4-c]pyridin-6-yl)thiazol-2-yl)acetamide], on PI3Kγ, the IC50 is 2.3 nM. The molecule also returned a solubility at 2 h in data set [1] of 3.5 µM (≈ 1.5 µg/mL).

As for `COCCOc1nc(-c2sc(NC(C)=O)nc2C)cc2c1C(=O)N([C@@H](C)C1CC1)C2` [Compound 42, (S)-N-(5-(2-(1-cyclopropylethyl)-4-(2-methoxyethoxy)-3-oxo-2,3-dihydro-1H-pyrrolo[3,4-c]pyridin-6-yl)-4-methylthiazol-2-yl)acetamide], the IC50 at PI3Kγ was 1.8 nM. For the same molecule, in data set [1], the solubility at 2 h stood at 2.6 µM (≈ 1.12 µg/mL).

Consider `CC(=O)Nc1nc(C)c(-c2cc3c(c(N4CCC(O)CC4)n2)C(=O)N([C@@H](C)C2CC2)C3)s1` [Compound 46, (S)-N-(5-(2-(1-cyclopropylethyl)-4-(4-hydroxypiperidin-1-yl)-3-oxo-2,3-dihydro-1H-pyrrolo[3,4-c]pyridin-6-yl)-4-methylthiazol-2-yl)acetamide], for which the IC50 turned out to be 0.7 nM at PI3Kγ and 3.8 nM on PI3K gamma. The solubility at 2 h in data set [1] came to 6.1 µM (≈ 2.78 µg/mL).

As to `CC(=O)Nc1nc(C)c(-c2cc3c(c(N4CC(O)C4)n2)C(=O)N([C@@H](C)C2CC2)C3)s1` [Compound 48, (S)-N-(5-(2-(1-cyclopropylethyl)-4-(3-hydroxyazetidin-1-yl)-3-oxo-2,3-dihydro-1H-pyrrolo[3,4-c]pyridin-6-yl)-4-methylthiazol-2-yl)acetamide], the IC50 at PI3Kγ worked out at 0.84 nM; at PI3K gamma, 14 nM.

On to `CC(=O)Nc1nc(C)c(-c2cc3c(c(N4CC(S(C)(=O)=O)C4)n2)C(=O)N([C@@H](C)C2CC2)C3)s1` [Compound 49, (S)-N-(5-(2-(1-cyclopropylethyl)-4-(3-(methylsulfonyl)azetidin-1-yl)-3-oxo-2,3-dihydro-1H-pyrrolo[3,4-c]pyridin-6-yl)-4-methylthiazol-2-yl)acetamide], for which the values for the IC50 at PI3Kγ and on PI3K gamma were 1 nM and 38 nM, respectively.

Regarding `CC(=O)Nc1nc(C)c(-c2cc3c(c(OCCO)n2)C(=O)N([C@@H](C)C2CC2)C3)s1` [Compound 50, (S)-N-(5-(2-(1-cyclopropylethyl)-4-(2-hydroxyethoxy)-3-oxo-2,3-dihydro-1H-pyrrolo[3,4-c]pyridin-6-yl)-4-methylthiazol-2-yl)acetamide], the IC50 on PI3Kγ came to 1 nM; at PI3K gamma it was 20 nM.

With `CC(=O)Nc1nc(C)c(-c2cc3c(c(OC4COC4)n2)C(=O)N([C@@H](C)C2CC2)C3)s1` [Compound 52, (S)-N-(5-(2-(1-cyclopropylethyl)-4-(oxetan-3-yloxy)-3-oxo-2,3-dihydro-1H-pyrrolo[3,4-c]pyridin-6-yl)-4-methylthiazol-2-yl)acetamide], the IC50 on PI3Kγ worked out at 1.1 nM; on PI3K gamma it was 12 nM.

With `CC(=O)Nc1nc(C)c(-c2cc3c(c(CN4CCOCC4)n2)C(=O)N([C@@H](C)C2CC2)C3)s1` [Compound 54, (S)-N-(5-(2-(1-cyclopropylethyl)-4-(morpholinomethyl)-3-oxo-2,3-dihydro-1H-pyrrolo[3,4-c]pyridin-6-yl)-4-methylthiazol-2-yl)acetamide], the IC50 on PI3Kγ is 4.6 nM; at PI3K gamma, 17 nM.

`CC(=O)Nc1nc(C)c(-c2cc3c(c(C(C)N4CCOCC4)n2)C(=O)N([C@@H](C)C2CC2)C3)s1` (stereo partly drawn) [Compound 55, N-(5-(2-((S)-1-cyclopropylethyl)-4-(1-morpholinoethyl)-3-oxo-2,3-dihydro-1H-pyrrolo[3,4-c]pyridin-6-yl)-4-methylthiazol-2-yl)acetamide]: the IC50 on PI3Kγ turned out to be 1.7 nM; at PI3K gamma, 18 nM.

In turn, `C[C@H](NC(=O)c1c(N)nn2cccnc12)c1cc2cccc(C#Cc3cnn(C)c3)c2c(=O)n1-c1ccccc1` [IPI-549, reference compound] gave a solubility at 2 h in data set [1] of 6.4 µM (≈ 3.38 µg/mL).
